The text below walks through data of ChEMBL document CHEMBL1201862, “PubChem BioAssay data set” (2004).

Activity calls are given as the source filed them. A value given as a limit tells only on which side of the number the result lay.

Experiment [1] deals with T1, RNA-binding protein pos-1 (Caenorhabditis elegans, UniProt G5EF15).
T1 sequence (G5EF15 whole entry): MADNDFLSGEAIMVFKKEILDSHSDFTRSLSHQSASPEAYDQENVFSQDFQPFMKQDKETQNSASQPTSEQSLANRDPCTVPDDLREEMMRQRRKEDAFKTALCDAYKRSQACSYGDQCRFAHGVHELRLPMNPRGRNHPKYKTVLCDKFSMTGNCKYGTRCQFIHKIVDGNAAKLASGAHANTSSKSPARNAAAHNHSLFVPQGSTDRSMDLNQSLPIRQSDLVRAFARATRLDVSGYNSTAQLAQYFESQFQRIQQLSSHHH
The experiment can be described thus: disruptors of C. elegans POS-1 RNA interaction – biochemical, fluorescence polarization, dose response (AID 1964). (Polarisation of emitted light reports the rotation of a fluorescent probe.)

Experiment [2] deals with T2, Zinc finger protein mex-5 (Caenorhabditis elegans, UniProt Q9XUB2).
T2 sequence (Q9XUB2 whole entry): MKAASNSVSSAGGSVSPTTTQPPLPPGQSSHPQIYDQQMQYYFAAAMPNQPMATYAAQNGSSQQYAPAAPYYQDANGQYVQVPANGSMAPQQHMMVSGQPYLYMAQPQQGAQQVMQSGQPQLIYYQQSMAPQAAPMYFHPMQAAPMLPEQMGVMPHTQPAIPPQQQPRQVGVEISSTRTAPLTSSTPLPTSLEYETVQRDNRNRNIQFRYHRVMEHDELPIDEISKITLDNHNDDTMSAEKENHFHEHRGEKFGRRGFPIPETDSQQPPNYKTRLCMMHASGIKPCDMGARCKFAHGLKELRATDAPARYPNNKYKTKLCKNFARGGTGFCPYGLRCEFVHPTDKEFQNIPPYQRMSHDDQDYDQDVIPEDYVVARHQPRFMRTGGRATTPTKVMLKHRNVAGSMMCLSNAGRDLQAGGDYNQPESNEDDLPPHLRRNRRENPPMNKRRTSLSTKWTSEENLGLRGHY
The experiment can be described thus: potency of MEX-5 RNA-binding blockers – biochemical, C. elegans, fluorescence polarization, dose response (AID 1960).

Experiment [3] addresses T3, High affinity choline transporter 1 (Homo sapiens, UniProt Q9GZV3).
T3 sequence (Q9GZV3 whole entry): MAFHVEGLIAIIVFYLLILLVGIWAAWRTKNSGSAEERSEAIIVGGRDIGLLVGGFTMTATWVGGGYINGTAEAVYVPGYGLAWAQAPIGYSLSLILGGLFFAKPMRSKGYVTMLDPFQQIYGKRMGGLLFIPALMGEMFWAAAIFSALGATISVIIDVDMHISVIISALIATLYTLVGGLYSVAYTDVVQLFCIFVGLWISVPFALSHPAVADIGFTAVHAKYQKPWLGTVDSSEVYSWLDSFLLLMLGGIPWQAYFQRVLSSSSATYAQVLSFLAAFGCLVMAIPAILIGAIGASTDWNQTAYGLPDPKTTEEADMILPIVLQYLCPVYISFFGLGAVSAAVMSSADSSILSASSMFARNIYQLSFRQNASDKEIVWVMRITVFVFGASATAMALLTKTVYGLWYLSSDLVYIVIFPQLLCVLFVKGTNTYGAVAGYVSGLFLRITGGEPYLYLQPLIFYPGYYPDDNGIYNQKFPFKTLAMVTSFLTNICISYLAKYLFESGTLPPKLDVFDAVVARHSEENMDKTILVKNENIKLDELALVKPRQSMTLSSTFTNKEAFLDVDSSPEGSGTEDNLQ
Put plainly: human choline transporter blockers, potency – cell-based, 5-point CRC, membrane potential dye, dose response (AID 504840). Type of experiment: functional.

The nature of experiment [4]: HEK-293T cell viability reduction – luminescence, B-cell screen hits, cytotoxicity control for BCR NF-kB inhibitor project, dose response (AID 489021).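 Also: HEK-293T cells carrying an NF-kB luciferase reporter; cells exposed to compound for about 14 hours before viability readout.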 Type of experiment: functional, cell-based.
For a further experiment, the target named is Paired box protein Pax-8 (Homo sapiens, UniProt Q06710). Put plainly: PAX8 transcriptional activity inhibition in RMG-I – RMG-I cells, luciferase, cherry-pick, dose response (AID 687027).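 Also: luciferase reporter driven by Pax8 target thyroperoxidase promoter measured by SteadyGlo luminescence.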 Type of experiment: functional, cell-based.
The nature of experiment [5]: inhibitors acting on PAX2 in cells – cell-based, plate reader, dry powder samples, selectivity assay for PAX8 inhibitor project, dose response (AID 743048).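 Also: HEK293 cells carrying a WT1 promoter luciferase reporter driven by expressed Pax2; potency is for inhibition of Pax2 driven reporter signal.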 Type of experiment: functional.
Experiment [6] in a line: PAX5 cellular inhibition readout – cell-based, plate reader, dry powder samples, selectivity assay for PAX8 inhibitor project, dose response (AID 743047).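 Also: HEK293 cells carrying a Pax5 driven CD19 promoter luciferase reporter; potency of inhibitors that lower reporter luminescence.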 Type of experiment: functional.
Experiment [7] is described as follows: IGROV1 cell killing – plate reader, dry powder samples, PAX8 inhibitor project, dose response (AID 743043). Type of experiment: functional, cell-based. The conditions noted are these: IGROV-1.
Experiment [8] in a line: OVCAR4 cell viability loss – plate reader, dry powder, SA11, cytotoxicity control for PAX8 inhibitor project, dose response (AID 743150). Type of experiment: functional, cell-based. The conditions noted are these: OVCAR-4.
Experiment [9] can be described thus: COV434 cell viability loss – plate reader, dry powder, SA7, cytotoxicity control for PAX8 inhibitor project, dose response (AID 743145). Type of experiment: functional, cell-based.
A short description of experiment [10]: PAX8-dependent cell viability loss – plate reader, dry powder, dose response (AID 743049). Type of experiment: functional, cell-based.
In experiment [11] the target is T4, Methionyl-tRNA synthetase, putative (Trypanosoma brucei brucei, UniProt Q38C91).
T4 sequence (Q38C91 whole entry): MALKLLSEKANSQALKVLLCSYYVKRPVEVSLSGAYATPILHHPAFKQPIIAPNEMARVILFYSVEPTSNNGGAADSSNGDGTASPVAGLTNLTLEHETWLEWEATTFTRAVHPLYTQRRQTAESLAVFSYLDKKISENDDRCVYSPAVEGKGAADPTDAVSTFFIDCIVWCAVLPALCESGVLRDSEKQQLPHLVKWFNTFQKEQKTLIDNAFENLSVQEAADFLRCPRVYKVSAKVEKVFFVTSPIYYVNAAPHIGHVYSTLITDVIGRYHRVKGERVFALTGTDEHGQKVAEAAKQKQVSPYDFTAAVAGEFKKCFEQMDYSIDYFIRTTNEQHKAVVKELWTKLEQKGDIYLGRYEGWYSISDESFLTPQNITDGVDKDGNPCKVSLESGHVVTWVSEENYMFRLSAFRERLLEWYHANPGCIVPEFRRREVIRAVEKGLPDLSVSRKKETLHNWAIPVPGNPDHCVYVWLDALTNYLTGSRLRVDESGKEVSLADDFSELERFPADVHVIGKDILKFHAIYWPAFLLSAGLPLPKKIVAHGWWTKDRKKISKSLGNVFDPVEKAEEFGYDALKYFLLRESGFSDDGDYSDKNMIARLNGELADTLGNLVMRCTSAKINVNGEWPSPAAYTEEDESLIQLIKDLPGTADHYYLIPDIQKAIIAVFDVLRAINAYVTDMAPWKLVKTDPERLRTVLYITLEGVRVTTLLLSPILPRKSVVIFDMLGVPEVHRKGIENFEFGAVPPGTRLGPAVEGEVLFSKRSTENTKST
Type of experiment: functional, Trypanosoma brucei brucei strain 927/4 GUTat10.1.

The nature of experiment [12]: Counterscreen for inhibitors of Trypanosoma brucei methionyl tRNA synthetase (MetRS): Luminescence-based cell-based high throughput dose response assay to identify compounds that are cytotoxic to Jurkat human T lymphocyte cells. Type of experiment: functional. A general note: Counterscreens check selectivity or assay interference.
In experiment [13] the target is T4, Methionyl-tRNA synthetase, putative. Type of experiment: functional, Trypanosoma brucei brucei strain 927/4 GUTat10.1. The source holds these as a separate data set.
A short description of experiment [14]: Late stage counterscreen for inhibitors of Trypanosoma brucei methionyl tRNA synthetase (MetRS): Luminescence-based cell-based high throughput dose response assay to identify compounds that are cytotoxic to Jurkat human T lymphocyte cells. Type of experiment: functional.
The target of experiment [15] is Glutathione-S-transferase (Schistosoma japonicum, UniProt Q26513). The experiment can be described thus: GST-antibody interaction or FRET quenching – biochemical, TR-FRET, artefact control for Vif-APOBEC3G degradation inhibitor project, dose response (AID 1117362). Type of experiment: functional. Background: In TR-FRET formats the signal depends on donor and acceptor labels being close together.

A short description of experiment [16]: COV362 cell viability loss – plate reader, dry powder, SA12, cytotoxicity control for PAX8 inhibitor project, dose response (AID 743144). Type of experiment: functional, cell-based.
Experiment [17] is described as follows: A2780 cell killing – plate reader, dry powder samples, cytotoxicity control, dose response (AID 743046). Type of experiment: functional, cell-based.
Experiment [18] can be described thus: OVCAR-3 cell viability loss – plate reader, dry powder samples, PAX8 inhibitor project, dose response (AID 743044). Type of experiment: functional, cell-based.
Experiment [19] is described as follows: OV-90 cell viability loss – plate reader, dry powder, SA8, PAX8 inhibitor project, dose response (AID 743149). Type of experiment: functional, cell-based.

Paired box protein Pax-8, sequence (Q06710 whole entry): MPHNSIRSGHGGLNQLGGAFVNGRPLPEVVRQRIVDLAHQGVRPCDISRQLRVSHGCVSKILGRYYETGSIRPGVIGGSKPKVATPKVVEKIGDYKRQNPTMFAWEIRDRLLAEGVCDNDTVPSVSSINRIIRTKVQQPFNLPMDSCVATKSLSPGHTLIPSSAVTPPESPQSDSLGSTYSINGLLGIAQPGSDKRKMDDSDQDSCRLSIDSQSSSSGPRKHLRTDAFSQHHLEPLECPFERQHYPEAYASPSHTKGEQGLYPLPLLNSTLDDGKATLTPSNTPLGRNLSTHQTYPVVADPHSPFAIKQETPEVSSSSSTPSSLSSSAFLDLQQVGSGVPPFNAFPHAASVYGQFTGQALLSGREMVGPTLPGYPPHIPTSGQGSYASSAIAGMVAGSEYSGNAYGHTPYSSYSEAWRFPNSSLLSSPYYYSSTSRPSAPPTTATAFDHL
Glutathione-S-transferase, sequence (Q26513 whole entry): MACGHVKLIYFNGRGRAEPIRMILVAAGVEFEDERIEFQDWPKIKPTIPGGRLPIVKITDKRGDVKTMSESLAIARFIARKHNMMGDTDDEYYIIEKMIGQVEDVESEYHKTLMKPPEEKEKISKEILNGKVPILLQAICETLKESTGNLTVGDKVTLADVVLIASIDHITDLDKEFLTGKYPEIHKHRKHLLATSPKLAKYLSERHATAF

`CCn1c2ccccc2c(=O)c2ccccc21`: the EC50 in experiment [1] and in [2] was > 300 µM (not active) each time. Also, the IC50 – broadly, the concentration at which inhibition is half-maximal – in experiment [3] is 15.1 µM (active). The AC50 – broadly, the midpoint of the concentration-response curve, whichever way the signal moves – in the experiment “cells” was 1.59 µM (active).

For the compound `CCN(CC(=O)Nc1c(F)cccc1F)C(=O)c1cc(S(=O)(=O)N(C)C)ccc1N1CCCC1`, in [4], the IC50 is > 80 µM (inactive). Moreover, the AC50 at Paired box protein Pax-8 is 7.72 µM (active); in experiment [5], 88.8 µM (active); in experiment [6] it was 73.1 µM (active); in experiment [7], 14.2 µM (active); in [8], 58.9 µM (active); in [9] it was 29.4 µM (active). Also, in [10], the AC50 is 39.3 µM (active).

As to `O=C(NCc1nc2ccccc2[nH]1)C1=C[C@H](C2CC2)C[C@H](OCc2ccc(CO)cc2)O1`, the IC50 in experiment [11] is 8.95 µM (active); in experiment [12], 83.3 µM (inactive); in [13], 3.68 µM (active); in experiment [14], > 83.3 µM (inactive).

With `COC(=O)/C(=N/Nc1ccccc1C)N1CCCc2ccccc21`, the IC50 in [15] was 1.9 µM (active).

As for `COc1cc(/C=C2\SC(=S)N(CCC(=O)N3CCCCC3)C2=O)cc(OC)c1OC`, the half-maximal activity concentration (AC50) at Paired box protein Pax-8 is 8.62 µM (active); in [5], 69.6 µM (active); in [16], 31.2 µM (active); in [17], 26.3 µM (active); in [18], 15.5 µM (active); in experiment [7] it was 13.1 µM (active). For the same compound, the AC50 is 43 µM (active) in [8], 26.8 µM (active) in [9], 35.9 µM (active) in [19] and 15 µM (active) in experiment [10].
